Among the test systems are SN12C renal; HL-60(TB) leukemia; EKVX NSCLC; CCRF-CEM leukemia; NCI/ADR-RES ovarian; OVCAR-8 ovarian; SNB-75 CNS; A549 NSCLC; RPMI-8226 leukemia; SF-539 CNS.
Common to all, as to test: DTP human tumour cell line panel, 48 h

One may read the TGI as the concentration giving total growth inhibition. A higher TGI goes with less potent growth arrest.

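Values below derive from 48-hour exposures of cells grown in 96-well plates, with endpoints linearly interpolated between the two concentrations bracketing the appropriate inhibition level. Definition used: TGI = concentration required for complete inhibition of growth.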

As for `CCNc1ncnc2sc(SCc3ccccc3)nc12`, the TGI was above 100 µM in the experiment with SN12C renal; 56.4 µM in the experiment on HL-60(TB) leukemia; above 100 µM in the experiment with EKVX NSCLC; above 100 µM in the experiment with CCRF-CEM leukemia; above 100 µM with NCI/ADR-RES ovarian; above 100 µM with OVCAR-8 ovarian. In addition, the TGI in the experiment on SNB-75 CNS, in the experiment on A549 NSCLC, in the experiment on RPMI-8226 leukemia and with SF-539 CNS was above 100 µM each time.
For `COc1nc2c(N3CCCC3)nc(N3CCNCC3)nc2nc1NCc1ccccc1`, the TGI stood at 4.95 µM in the experiment with SN12C renal; 3.7 µM in the experiment on HL-60(TB) leukemia; 10.8 µM with EKVX NSCLC; 6.72 µM with CCRF-CEM leukemia; 17.1 µM in the experiment with NCI/ADR-RES ovarian; 10.7 µM in the experiment on OVCAR-8 ovarian. Moreover, the TGI in the experiment on SNB-75 CNS came to 4.19 µM; in the experiment with A549 NSCLC it was 5.34 µM; in the experiment with RPMI-8226 leukemia, 3.96 µM; with SF-539 CNS it was 3.21 µM.
As to `COc1ccc(N2C(=O)C3c4[nH]c5ccccc5c4C4CCCCCCCCCC4C3C2=O)cc1` (centres undefined), the TGI with SN12C renal, with HL-60(TB) leukemia, with EKVX NSCLC, in the experiment with CCRF-CEM leukemia, in the experiment on NCI/ADR-RES ovarian and in the experiment with OVCAR-8 ovarian was above 10 µM in each case. Further, the TGI with SNB-75 CNS, in the experiment with A549 NSCLC, with RPMI-8226 leukemia and with SF-539 CNS was above 10 µM throughout.
As to `CC#CC(O)(C(=O)OC1CC(C)N(C)C(C)(C)C1)C1CCCC1` (centres undefined), the TGI was above 100 µM with SN12C renal; above 100 µM with HL-60(TB) leukemia; above 100 µM in the experiment on EKVX NSCLC; above 100 µM with CCRF-CEM leukemia; 93.6 µM in the experiment on NCI/ADR-RES ovarian; above 100 µM in the experiment on OVCAR-8 ovarian. Besides, the TGI with SNB-75 CNS, in the experiment on A549 NSCLC, in the experiment on RPMI-8226 leukemia and in the experiment with SF-539 CNS was above 100 µM in each case.
For the molecule `O=C(O)CN(CC(=O)O)C(C(=O)O)c1ccccc1` (centres undefined), the TGI in the experiment on SN12C renal, with HL-60(TB) leukemia, in the experiment on EKVX NSCLC, in the experiment with CCRF-CEM leukemia, in the experiment with NCI/ADR-RES ovarian and in the experiment on OVCAR-8 ovarian was above 100 µM each time. Further, the TGI in the experiment on SNB-75 CNS, with A549 NSCLC, in the experiment on RPMI-8226 leukemia and in the experiment with SF-539 CNS was above 100 µM each time.
Turning to `CC(C)=CCC[C@@H](C)C1=C(O)C(N)=C(C)C(=O)C1=O`, the TGI in the experiment on SN12C renal is above 100 µM; with HL-60(TB) leukemia, 10.9 µM; in the experiment with EKVX NSCLC, above 100 µM; in the experiment with CCRF-CEM leukemia, above 100 µM; with NCI/ADR-RES ovarian it was 24.7 µM; in the experiment with OVCAR-8 ovarian it was above 64.8 µM. Also, the TGI in the experiment with SNB-75 CNS was above 100 µM; in the experiment on A549 NSCLC it was above 100 µM; in the experiment with RPMI-8226 leukemia it was 98.6 µM; with SF-539 CNS, 89.5 µM.
Regarding `O=[N+]([O-])c1cc(Cl)ccc1Sc1ccccc1`, the TGI in the experiment on SN12C renal, with HL-60(TB) leukemia, in the experiment with EKVX NSCLC, in the experiment with CCRF-CEM leukemia, in the experiment on NCI/ADR-RES ovarian and in the experiment with OVCAR-8 ovarian was above 100 µM throughout. For the same molecule, the TGI in the experiment with SNB-75 CNS was 87 µM; with A549 NSCLC, above 100 µM; with RPMI-8226 leukemia, above 100 µM; in the experiment on SF-539 CNS it was above 100 µM.
`CC(C)/C(Cl)=N/OC(=O)Nc1ccc(OC(F)(F)F)cc1`: the TGI was found to be 31.7 µM in the experiment with SN12C renal; 5.76 µM in the experiment on HL-60(TB) leukemia; 22.9 µM with EKVX NSCLC; 5.08 µM in the experiment with CCRF-CEM leukemia; 33.6 µM in the experiment on NCI/ADR-RES ovarian; 33.5 µM in the experiment with OVCAR-8 ovarian. Besides, the TGI in the experiment on SNB-75 CNS was 29 µM; with A549 NSCLC, 34.8 µM; in the experiment on RPMI-8226 leukemia, 8.97 µM; with SF-539 CNS, 31.3 µM.
Turning to `Nc1nc(Nc2ccccc2)sc1C(=O)c1ccco1`, the TGI in the experiment on SN12C renal worked out at 39.5 µM; in the experiment with HL-60(TB) leukemia, 36.1 µM; with EKVX NSCLC it was 38.7 µM; in the experiment on CCRF-CEM leukemia it was 17.1 µM; with NCI/ADR-RES ovarian, 65.5 µM; in the experiment on SNB-75 CNS, 37.7 µM. In addition, the TGI in the experiment on A549 NSCLC turned out to be 43.2 µM; with RPMI-8226 leukemia it was 42.2 µM; in the experiment with SF-539 CNS it was 33.3 µM.
With `COc1cc2[nH]c(-c3ccccc3)cc(=O)c2c(OC)c1OC`, the TGI in the experiment on SN12C renal, with HL-60(TB) leukemia, in the experiment with EKVX NSCLC, in the experiment on CCRF-CEM leukemia, in the experiment on NCI/ADR-RES ovarian and in the experiment with OVCAR-8 ovarian was above 100 µM in each case. Besides, the TGI with SNB-75 CNS, with A549 NSCLC and in the experiment on RPMI-8226 leukemia was above 100 µM each time.
In the case of `CCN1C(=O)C(=C/C=C/c2ccc(N(CC)CC)cc2)C(=O)N(CC)C1=S`, the TGI in the experiment with SN12C renal, with HL-60(TB) leukemia, in the experiment with EKVX NSCLC, in the experiment on CCRF-CEM leukemia, in the experiment with NCI/ADR-RES ovarian and in the experiment on OVCAR-8 ovarian was above 100 µM throughout. Further, the TGI in the experiment with A549 NSCLC, in the experiment with RPMI-8226 leukemia and in the experiment with SF-539 CNS was above 100 µM in each case.
In the case of `c1ccc(C2CC(=NC3CCCCC3)Nc3ccccc3N2)cc1` (centres undefined), the TGI in the experiment on SN12C renal, in the experiment on HL-60(TB) leukemia, in the experiment on EKVX NSCLC, in the experiment with CCRF-CEM leukemia, with NCI/ADR-RES ovarian and with OVCAR-8 ovarian was above 100 µM each time. Further, the TGI is 78.4 µM with SNB-75 CNS, above 100 µM with A549 NSCLC and above 100 µM with RPMI-8226 leukemia.
`COc1ccc([C@H]2C=[N+]([O-])O[C@H](OC3CCCC3)[C@@H]2OC(C)=O)cc1OC`: the TGI in the experiment with HL-60(TB) leukemia is 39.1 µM; with EKVX NSCLC it was 50.2 µM; with CCRF-CEM leukemia, 20.1 µM; in the experiment with NCI/ADR-RES ovarian, 63.6 µM; in the experiment on OVCAR-8 ovarian, 62.2 µM; in the experiment on SNB-75 CNS, above 100 µM. For the same molecule, the TGI is above 100 µM in the experiment on A549 NSCLC, above 100 µM with RPMI-8226 leukemia and 38 µM in the experiment with SF-539 CNS.
As for `O=C(/C=C/c1ccc2c(c1)OCO2)Cc1nc2ccccc2[nH]c1=O`, the TGI with SN12C renal is 60.2 µM; in the experiment with HL-60(TB) leukemia, above 100 µM; in the experiment on EKVX NSCLC, above 100 µM; in the experiment on CCRF-CEM leukemia, above 100 µM; in the experiment on NCI/ADR-RES ovarian, above 100 µM; with OVCAR-8 ovarian, above 100 µM. Besides, the TGI with A549 NSCLC is 62 µM; with RPMI-8226 leukemia, above 100 µM; in the experiment on SF-539 CNS, above 100 µM.
